Test results reported in publication PMC10847579, “Recording ten-fold larger IKr conductances with automated patch clamping using equimolar Cs^+ solutions” (Frontiers in Physiology, 2024).

What was measured:
hERG channel [1] = molecular target: T1, hERG channel (Homo sapiens, UniProt Q12809); assay: Automated patch clamp (Nanion Patchliner) of hERG current in CHO-hERG cells with K+ solutions; type: cell-based
T1 construct: host or cells: CHO cre/lox hERG
Experimental: (§1) A cell passage was performed twice a week and kept under 20 passages for optimal cell quality. […] Thereafter, the cells were resuspended in 1.7 mL external K^+ solution.
(§2) After sample preparation, experiments on CHO cells were performed at 22°C on the Nanion® Patchliner system (Nanion Technologies, Munich, Germany) with a EPC-10 Quadro Amplifier (HEKA, Reutlingen, Germany) controlled by Patchmaster 2.90.5. Recordings were performed using membrane capacitance and series resistance compensation (70%). The chip (NPC-16 medium resistance, Nanion Technologies) was filled with either the K^+ or Cs^+ internal and external solution with a resistance between 2 and 4 MOhm. Thereafter, the cells were added to the chip. After the capture of a cell, the seal enhancer solution was added, obtaining a Rseal of at least 200 MOhm. Next, the chip was flushed with an external solution. During the experiment, four cells were measured simultaneously in separate chambers of the chip.
(§3) For all experiments, the drugs were incubated for 60 s before measuring and an activation pulse of +20 mV and −80 mV both for 500 m was given to open the channel and achieve the steady-state ion channel–drug interaction.
For Cs^+-based experiments, the cells were depolarized from a holding potential of −80 mV in 10-mV increments between −70 mV and +40 mV for 3 s. Thereafter, the cell was clamped back to −80 mV for 2 s, followed by a hyperpolarization step to −100 mV for 50 ms before returning to −80 mV. In K^+-based experiments, the cells were clamped at a holding potential of −80 mV before a hyperpolarizing step to −120 mV for 10 ms and returned to −80 mV for 50 ms before cells were depolarized from −60 mV to 60 mV in 10-mV increments for 1 s. Thereafter, the cells were clamped back to −50 mV for 500 ms and finally returned to −80 mV. The interval between sweeps was 10 s for both protocols.
For the stock solutions, the drugs were dissolved in ddH2O and for the working solution diluted in either the K^+ or Cs^+ external solution. The different concentrations per compound were sequentially tested on the same cell.
For all measured currents, the current densities (pA/pF) were determined by normalizing for the membrane capacitance. The current densities were converted to conductance densities (pS/pF) using reversal potentials calculated using the Nernst equation for the solution and temperature used.
Dose–response curves were made with the tail current values at 40 mV, which were the largest current densities.
All averages are expressed as mean ± SEM for the (maximal) conductance values and IC50 values. To determine the amount of block, a two-way ANOVA with Dunnett’s test was performed with the maximal conductance values. […]

hERG channel [2] = molecular target: T1, hERG channel; assay: Automated patch clamp (Nanion Patchliner) of hERG current in CHO-hERG cells with equimolar Cs+ solutions; type: cell-based
Experimental: as §1, §2, §3
For Cs^+-based experiments, the cells were depolarized from a holding potential of −80 mV in 10-mV increments between −70 mV and +40 mV for 3 s. Thereafter, the cell was clamped back to −80 mV for 2 s, followed by a hyperpolarization step to −100 mV for 50 ms before returning to −80 mV. In K^+-based experiments, the cells were clamped at a holding potential of −80 mV before a hyperpolarizing step to −120 mV for 10 ms and returned to −80 mV for 50 ms before cells were depolarized from −60 mV to 60 mV in 10-mV increments for 1 s. […]
For all measured currents, the current densities (pA/pF) were determined by normalizing for the membrane capacitance. The current densities were converted to conductance densities (pS/pF) using reversal potentials calculated using the Nernst equation for the solution and temperature used. […]
All averages are expressed as mean ± SEM for the (maximal) conductance values and IC50 values. […]

T1 sequence (Q12809 whole entry): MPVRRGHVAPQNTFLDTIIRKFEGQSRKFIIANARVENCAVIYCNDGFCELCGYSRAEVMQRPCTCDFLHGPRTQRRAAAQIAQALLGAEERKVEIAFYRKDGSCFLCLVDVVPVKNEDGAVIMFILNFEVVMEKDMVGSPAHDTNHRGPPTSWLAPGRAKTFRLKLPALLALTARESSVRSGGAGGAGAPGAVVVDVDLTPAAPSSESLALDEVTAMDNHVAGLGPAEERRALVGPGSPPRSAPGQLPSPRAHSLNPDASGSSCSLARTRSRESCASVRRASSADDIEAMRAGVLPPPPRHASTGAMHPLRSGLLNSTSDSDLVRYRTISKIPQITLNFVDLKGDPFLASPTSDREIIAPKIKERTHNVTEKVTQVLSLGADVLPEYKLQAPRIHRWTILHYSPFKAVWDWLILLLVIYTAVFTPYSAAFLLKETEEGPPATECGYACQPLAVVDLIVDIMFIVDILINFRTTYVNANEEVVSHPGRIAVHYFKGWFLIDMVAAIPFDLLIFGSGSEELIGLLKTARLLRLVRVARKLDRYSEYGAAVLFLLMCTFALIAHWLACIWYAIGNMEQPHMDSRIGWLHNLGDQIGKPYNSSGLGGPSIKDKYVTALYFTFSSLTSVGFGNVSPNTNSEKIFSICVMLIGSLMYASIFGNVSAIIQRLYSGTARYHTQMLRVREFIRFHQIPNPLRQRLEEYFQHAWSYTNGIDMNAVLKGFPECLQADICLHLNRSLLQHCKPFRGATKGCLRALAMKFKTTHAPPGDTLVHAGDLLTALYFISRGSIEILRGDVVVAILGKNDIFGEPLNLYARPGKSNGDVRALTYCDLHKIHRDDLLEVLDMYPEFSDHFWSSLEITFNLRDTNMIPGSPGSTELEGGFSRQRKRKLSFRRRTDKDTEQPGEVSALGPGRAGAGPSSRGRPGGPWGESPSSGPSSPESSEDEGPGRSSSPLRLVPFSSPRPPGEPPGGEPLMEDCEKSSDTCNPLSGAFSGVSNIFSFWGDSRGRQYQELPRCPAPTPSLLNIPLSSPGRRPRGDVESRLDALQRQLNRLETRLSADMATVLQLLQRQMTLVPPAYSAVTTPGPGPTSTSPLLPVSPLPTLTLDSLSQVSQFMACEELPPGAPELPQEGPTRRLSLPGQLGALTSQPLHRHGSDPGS

With `CNCCCN1c2ccccc2CCc2ccccc21` [Desipramine] the “effect on K+ step conductance” value (hERG channel [1]; K+ solutions, 1 µM) was “almost completely inhibited”, the “effect on K+ tail conductance” value (hERG channel [1]; K+ solutions, 100 and 1,000 µM) was “completely blocked” and the Hill coef. (hERG channel [1]; K+ solutions, tail current at +40 mV) was −1.4. For the same compound, the “strength of hERG current inhibition” value (hERG channel [1]; comparison of the drugs, Figure 1 (K+ and Cs+ solutions)) was “modest inhibition”, the “effect on Cs+ step conductance” value (hERG channel [2]; 100 µM (highest)) was “slightly decreased” and the “effect on Cs+ tail conductance” value (hERG channel [2]; 100 µM (highest)) was “strong decrease but not a complete block”. The Hill coef. (hERG channel [2]; tail current at +40 mV) was −1.4.
